Reference: patent publication US20250161307A1, “PYRAZOLOPYRIMIDINES AS MODULATORS OF SPERMINE OXIDASE” (Janssen Pharmaceutica NV, priority 2022, published 2025)

Columns and labels:
[1] = biological target: SMOX (Homo sapiens (Human), UniProt Q9NWM0); experiment: Human SMOX assay (HyPerBlu chemiluminescent detection of hydrogen peroxide); type: biochemical; details: 2.5 nM full length hSMOX, spermine substrate, 1 h at room temperature, luminescence read; read-out: SMOx_IC50
Experimental: (§1) The direct detection of hydrogen peroxide produced from the enzymatic reaction of hSMOX or hPAOX in a biochemical assay format was measured using HyPerBlu (Lumigen, Southfield, MI), a small molecule boronate probe that reacts with hydrogen peroxide to generate a chemiluminescent signal. Inhibition of hSMOX or hPAOX enzyme results in a decrease in luminescence.
Test compounds (75 nL) dissolved in DMSO were added to a 384-well white assay plate (Greiner Bio-one, catalog #784075) using an ECHO Acoustic Dispenser (Labcyte). Each compound was serially diluted 3-fold in DMSO to prepare an 11-point dose response curve (columns 1-22). Column 23 and 24 contained 75 nL of 2 mM chlorhexidine and DMSO, respectively, to represent the 100% inhibited versus the neutral control reactions.
Subsequently, 3 μL/well of the substrate solution prepared in assay buffer (10 mM Hepes, pH 7.4, 150 mM NaCl, 1 mM EGTA, 0.01% Pluronic F-127, 0.05% ovalbumin) was dispensed into the assay plate followed by 3 μL/well of full length hSMOX enzyme with an N-terminal His tag from E. coli prepared in assay buffer to initiate the reactions. After a 1 h incubation at room temperature, 6 μL/well of HyPerBlu was added. After a 30 min incubation, the hydrogen peroxide product generated from the hSMOX reactions was measured using an endpoint luminescence read on the PHERAStar FS/FSX microplate reader (BMG LABTECH).
The final assay conditions included 10 mM Hepes, pH 7.4, 150 mM NaCl, 1 mM EGTA, 0.01% Pluronic F-127, 0.05% ovalbumin, 2.5 nM hSMOX, 30 µM spermine, and 1.25% DMSO.
Dose-response curves were fit and compound IC50 values were determined using Genedata Screener (Genedata AG).

[2] = biological target: hPAOX (Homo sapiens (Human), UniProt Q6QHF9); experiment: Human PAOX assay (HyPerBlu chemiluminescent detection of hydrogen peroxide); type: biochemical; details: 60 pM recombinant PAOX, 20 μM N-acetylspermine substrate
Experimental: as §1
The hPAOX assay was run and the data analyzed similarly to the hSMOX assay described above, except the reactions contained 60 pM recombinant PAOX with an N-terminal His tag expressed from sf9 insect cells and used 20 μM N-acetylspermine as the substrate.

Sequence of hPAOX (Q6QHF9 whole entry): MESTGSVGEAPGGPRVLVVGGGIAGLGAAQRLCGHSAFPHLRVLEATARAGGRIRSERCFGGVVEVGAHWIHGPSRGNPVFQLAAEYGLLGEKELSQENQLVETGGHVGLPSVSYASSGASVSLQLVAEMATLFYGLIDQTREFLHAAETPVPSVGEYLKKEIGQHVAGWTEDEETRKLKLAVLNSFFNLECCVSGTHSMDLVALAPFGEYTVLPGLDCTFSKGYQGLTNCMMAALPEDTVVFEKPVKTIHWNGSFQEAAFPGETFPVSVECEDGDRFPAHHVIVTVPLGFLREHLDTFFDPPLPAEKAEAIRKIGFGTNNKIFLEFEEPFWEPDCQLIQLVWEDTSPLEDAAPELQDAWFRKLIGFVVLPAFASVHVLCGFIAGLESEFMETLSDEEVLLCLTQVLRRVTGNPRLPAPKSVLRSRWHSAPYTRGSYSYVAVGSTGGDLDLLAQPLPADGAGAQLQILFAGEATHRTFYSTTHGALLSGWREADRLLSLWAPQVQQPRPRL
Sequence of SMOX (Q9NWM0 whole entry): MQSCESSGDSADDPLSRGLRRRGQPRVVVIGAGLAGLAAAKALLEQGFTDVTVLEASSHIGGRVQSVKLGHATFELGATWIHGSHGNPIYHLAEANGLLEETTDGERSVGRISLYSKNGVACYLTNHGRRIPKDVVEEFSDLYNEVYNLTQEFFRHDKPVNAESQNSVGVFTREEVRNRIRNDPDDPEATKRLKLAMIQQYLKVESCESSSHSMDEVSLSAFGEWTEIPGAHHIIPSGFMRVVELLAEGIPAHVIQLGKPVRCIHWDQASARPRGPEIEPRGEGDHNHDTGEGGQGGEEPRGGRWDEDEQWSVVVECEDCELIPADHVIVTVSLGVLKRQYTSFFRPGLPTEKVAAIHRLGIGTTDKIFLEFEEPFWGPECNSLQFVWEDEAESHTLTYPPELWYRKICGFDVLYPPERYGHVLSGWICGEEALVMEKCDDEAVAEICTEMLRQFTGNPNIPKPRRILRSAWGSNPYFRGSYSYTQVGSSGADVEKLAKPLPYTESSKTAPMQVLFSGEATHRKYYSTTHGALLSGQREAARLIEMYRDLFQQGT

Row | Compound | IC50 [1] [nM] | IC50 [2] [nM]
1 | O=C(NC1CCN(Cc2ccccc2)C1)c1cc2nc(-c3ccccc3)cc(-c3ccccc3)n2n1 (centres unmarked) [Example 16, N-(1-Benzylpyrrolidin-3-yl)-5,7-diphenylpyrazolo[1,5-a]pyrimidine-2-carboxamide] | 412 | 4360
2 | CN1CCC(NC(=O)c2cc3nc(-c4ccccc4)cc(-c4ccccc4)n3n2)CC1 [Example 17, N-(1-Methylpiperidin-4-yl)-5,7-diphenylpyrazolo[1,5-a]pyrimidine-2-carboxamide] | 606 | 10400
3 | O=C(NCC1CCN(C2CC2)C1)c1cc2nc(-c3ccccc3)cc(-c3ccccc3)n2n1 (centres unmarked) [Example 22, N-((1-Cyclopropylpyrrolidin-3-yl)methyl)-5,7-diphenylpyrazolo[1,5-a]pyrimidine-2-carboxamide] | 691 | 535
4 | CN1CCC(CNC(=O)c2cc3nc(-c4ccccc4)cc(-c4ccccc4)n3n2)CC1 [Example 24, N-((1-Methylpiperidin-4-yl)methyl)-5,7-diphenylpyrazolo[1,5-a]pyrimidine-2-carboxamide] | 907 | 1940
5 | O=C(NCCc1ncc[nH]1)c1cc2nc(-c3ccccc3)cc(-c3ccccc3)n2n1 [Example 25, N-(2-(1H-Imidazol-2-yl)ethyl)-5,7-diphenylpyrazolo[1,5-a]pyrimidine-2-carboxamide] | 253 | 35
6 | O=C(NCCCNc1ccccn1)c1cc2nc(-c3ccccc3)cc(-c3ccccc3)n2n1 [Example 26, 5,7-Diphenyl-N-(3-(pyridin-2-ylamino)propyl)pyrazolo[1,5-a]pyrimidine-2-carboxamide] | 324 | 22
7 | O=C(NCCNc1ccccn1)c1cc2nc(-c3ccccc3)cc(-c3ccccc3)n2n1 [Example 28, 5,7-Diphenyl-N-(2-(pyridin-2-ylamino)ethyl)pyrazolo[1,5-a]pyrimidine-2-carboxamide] | 156 | 85
8 | CN1CC(CNC(=O)c2cc3nc(-c4ccccc4)cc(-c4ccccc4)n3n2)C1 [Example 29, N-((1-Methylazetidin-3-yl)methyl)-5,7-diphenylpyrazolo[1,5-a]pyrimidine-2-carboxamide] | 480 | 1760
9 | O=C(NCCCCN1CCCC1)c1cc2nc(-c3ccccc3)cc(-c3ccccc3)n2n1 [Example 30, 5,7-Diphenyl-N-(4-(pyrrolidin-1-yl)butyl)pyrazolo[1,5-a]pyrimidine-2-carboxamide] | 297 | 129
10 | O=C(NCCCc1cccnc1)c1cc2nc(-c3ccccc3)cc(-c3ccccc3)n2n1 [Example 31, 5,7-Diphenyl-N-(3-(pyridin-3-yl)propyl)pyrazolo[1,5-a]pyrimidine-2-carboxamide] | 900 | 2100
11 | CN(CCCNC(=O)c1cc2nc(-c3ccccc3)cc(-c3ccccc3)n2n1)c1ccccn1 [Example 32, N-(3-(Methyl(pyridin-2-yl)amino)propyl)-5,7-diphenylpyrazolo[1,5-a]pyrimidine-2-carboxamide] | 850 | 6220
12 | CN(C)CC(C)(C)CNC(=O)c1cc2nc(-c3ccccc3)cc(-c3ccccc3)n2n1 [Example 33, N-(3-(Dimethylamino)-2,2-dimethylpropyl)-5,7-diphenylpyrazolo[1,5-a]pyrimidine-2-carboxamide] | 314 | > 31200
13 | O=C(NCCc1c[nH]cn1)c1cc2nc(-c3ccccc3)cc(-c3ccccc3)n2n1 [Example 34, N-(2-(1H-Imidazol-4-yl)ethyl)-5,7-diphenylpyrazolo[1,5-a]pyrimidine-2-carboxamide] | 262 | 11
14 | O=C(NCCCN1CCC1)c1cc2nc(-c3ccccc3)cc(-c3ccccc3)n2n1 [Example 35, N-(3-(Azetidin-1-yl)propyl)-5,7-diphenylpyrazolo[1,5-a]pyrimidine-2-carboxamide] | 523 | 362
15 | O=C(NCCN1CCC1)c1cc2nc(-c3ccccc3)cc(-c3ccccc3)n2n1 [Example 36, N-(2-(Azetidin-1-yl)ethyl)-5,7-diphenylpyrazolo[1,5-a]pyrimidine-2-carboxamide] | 360 | 995
16 | O=C(NC1CCCC(n2ccnc2)C1)c1cc2nc(-c3ccccc3)cc(-c3ccccc3)n2n1 (centres unmarked) [Example 37, N-(3-(1H-Imidazol-1-yl)cyclohexyl)-5,7-diphenylpyrazolo[1,5-a]pyrimidine-2-carboxamide] | 878 | 12600

Row | Compound | IC50 [1] [nM] | IC50 [2] [nM]
17 | O=C(NCCc1ccncc1)c1cc2nc(-c3ccccc3)cc(-c3ccccc3)n2n1 [Example 38, 5,7-Diphenyl-N-(2-(pyridin-4-yl)ethyl)pyrazolo[1,5-a]pyrimidine-2-carboxamide] | 4580 | 1140
18 | O=C(NCCc1ccccn1)c1cc2nc(-c3ccccc3)cc(-c3ccccc3)n2n1 [Example 39, 5,7-Diphenyl-N-(2-(pyridin-2-yl)ethyl)pyrazolo[1,5-a]pyrimidine-2-carboxamide] | 2750 | 1420
19 | O=C(NCCc1ccccc1)c1cc2nc(-c3ccccc3)cc(-c3ccccc3)n2n1 [Example 40, N-Phenethyl-5,7-diphenylpyrazolo[1,5-a]pyrimidine-2-carboxamide] | > 31200 | > 31200
20 | O=C(NC1CCC1)c1cc2nc(-c3ccccc3)cc(-c3ccccc3)n2n1 [Example 41, N-Cyclobutyl-5,7-diphenylpyrazolo[1,5-a]pyrimidine-2-carboxamide] | > 31200 | > 31200
21 | CN1CC(C)(NC(=O)c2cc3nc(-c4ccccc4)cc(-c4ccccc4)n3n2)C1 [Example 42, N-(1,3-Dimethylazetidin-3-yl)-5,7-diphenylpyrazolo[1,5-a]pyrimidine-2-carboxamide] | 2210 | 6780
22 | CN(C)CCN(C)C(=O)c1cc2nc(-c3ccccc3)cc(-c3ccccc3)n2n1 [Example 44, N-(2-(Dimethylamino)ethyl)-N-methyl-5,7-diphenylpyrazolo[1,5-a]pyrimidine-2-carboxamide] | 7340 | > 31200
23 | CN1CC(N(C)C(=O)c2cc3nc(-c4ccccc4)cc(-c4ccccc4)n3n2)C1 [Example 45, N-Methyl-N-(1-methylazetidin-3-yl)-5,7-diphenylpyrazolo[1,5-a]pyrimidine-2-carboxamide] | 1820 | 11600
24 | CN1CC(NC(=O)c2nn3c(-c4ccccc4)cc(-c4ccccc4)nc3c2I)C1 [Example 46, 3-Iodo-N-(1-methylazetidin-3-yl)-5,7-diphenylpyrazolo[1,5-a]pyrimidine-2-carboxamide] | 33 | 5410
25 | CN1CCC(NC(=O)c2nn3c(-c4ccccc4)cc(-c4ccccc4)nc3c2I)C1 (centres unmarked) [Example 47, 3-Iodo-N-(1-methylpyrrolidin-3-yl)-5,7-diphenylpyrazolo[1,5-a]pyrimidine-2-carboxamide] | 125 | 20600
26 | CN1CCC(C)(CNC(=O)c2nn3c(-c4ccccc4)cc(-c4ccccc4)nc3c2I)C1 (centres unmarked) [Example 48, N-((1,3-Dimethylpyrrolidin-3-yl)methyl)-3-iodo-5,7-diphenylpyrazolo[1,5-a]pyrimidine-2-carboxamide] | 698 | 7590
27 | CN1CC(NC(=O)c2nn3c(-c4ccccc4)cc(-c4ccccc4)nc3c2Cl)C1 [Example 49, 3-Chloro-N-(1-methylazetidin-3-yl)-5,7-diphenylpyrazolo[1,5-a]pyrimidine-2-carboxamide] | 108 | 9060
28 | Cc1c(C(=O)NC2CN(C)C2)nn2c(-c3ccccc3)cc(-c3ccccc3)nc12 [Example 50, 3-Methyl-N-(1-methylazetidin-3-yl)-5,7-diphenylpyrazolo[1,5-a]pyrimidine-2-carboxamide] | 110 | 3130
29 | Cc1c(C(=O)NC2CCN(C)C2)nn2c(-c3ccccc3)cc(-c3ccccc3)nc12 (centres unmarked) [Example 51, 3-Methyl-N-(1-methylpyrrolidin-3-yl)-5,7-diphenylpyrazolo[1,5-a]pyrimidine-2-carboxamide] | 821 | 7710
30 | CN1CC(NC(=O)c2nn3c(-c4ccccc4)cc(-c4ccccc4)nc3c2F)C1 [Example 52, 3-Fluoro-N-(1-methylazetidin-3-yl)-5,7-diphenylpyrazolo[1,5-a]pyrimidine-2-carboxamide] | 215 | 1920
31 | CN1CC(NC(=O)c2nn3c(-c4ccccc4)cc(-c4ccccc4)nc3c2C#N)C1 [Example 53, 3-Cyano-N-(1-methylazetidin-3-yl)-5,7-diphenylpyrazolo[1,5-a]pyrimidine-2-carboxamide] | 273 | 13300
